The text below walks through data of ChEMBL document CHEMBL5131514, “Structure and Mechanism-Guided Design of Dual Serine/Metallo-Carbapenemase Inhibitors” (J Med Chem, 2022).

Molecules are shown by their SMILES. pIC50, pKi: −log10 of the molar value. A value given as a limit tells only on which side of the number the result lay.

The nature of experiment [1]: Inhibition of bacterial beta-lactamase KPC-2 expressed in Escherichia coli BL21 (DE3) assessed as inhibition constant using nitrocefin as substrate by microplate reader analysis. Set-up: species or system Bacteria.
A short description of experiment [2]: Inhibition of bacterial beta-lactamase NDM-1 (42 to 270 residues) expressed in Escherichia coli BL21 (DE3) assessed as inhibition constant using nitrocefin as substrate by microplate reader analysis. Set-up: species or system Bacteria.
In experiment [3] the test system is Bacteria. Briefly: Inhibition of bacterial beta-lactamase CTX-M-15 at 200 uM CENTA substrate by colorimetric assay relative to control.
The subject of experiment [4] is Bacteria. Briefly: Inhibition of bacterial beta-lactamase KPC-2 at 200 uM using CENTA substrate by colorimetric assay relative to control.
Experiment [5] relates to Bacteria. Nature of the experiment: Inhibition of recombinant bacterial beta-lactamase […] (28 to 270 residues) at 200 uM using CENTA substrate by colorimetric assay relative to control.
Experiment [6] concerns Bacteria. Nature of the experiment: Inhibition of recombinant bacterial beta-lactamase VIM-2 (26 to 266 residues) expressed in Escherichia coli Lemo21(DE3) at 200 uM using CENTA substrate by colorimetric assay relative to control.
Experiment [7] deals with Bacteria. Briefly: Inhibition of bacterial beta-lactamase AmpC at 200 uM using CENTA substrate by colorimetric assay relative to control.
Experiment [8] can be described thus: Inhibition of bacterial beta-lactamase KPC-2 using nitrocefin as substrate incubated for 10 mins and measured every 10 seconds for 10 mins. Also on record: species or system Bacteria.
Experiment [9] in a line: Inhibition of bacterial beta-lactamase CTX-M-15 using nitrocefin as substrate incubated for 10 mins and measured every 10 seconds for 10 mins. Set-up: species or system Bacteria.
Experiment [10] can be described thus: Inhibition of bacterial beta-lactamase SHV-12 using nitrocefin as substrate incubated for 10 mins and measured every 10 seconds for 10 mins. Also on record: species or system Bacteria.
Experiment [11] can be described thus: Inhibition of bacterial beta-lactamase TEM-10 using nitrocefin as substrate incubated for 10 mins and measured every 10 seconds for 10 mins. Also on record: species or system Bacteria.
Experiment [12] in a line: Inhibition of bacterial beta-lactamase P99 using nitrocefin as substrate incubated for 10 mins and measured every 10 seconds for 10 mins. Set-up: species or system Bacteria.
A short description of experiment [13]: Inhibition of bacterial beta-lactamase OXA-48 using nitrocefin as substrate incubated for 10 mins and measured every 10 seconds for 10 mins. Also on record: species or system Bacteria.
Experiment [14] in a line: Inhibition of bacterial beta-lactamase IMP-1 using imipenem as substrate incubated for 10 mins followed by substrate addition measured every 30 seconds for 1 hr. Also on record: species or system Bacteria.
Experiment [15] in a line: Inhibition of bacterial beta-lactamase VIM-1 using nitrocefin as substrate incubated for 10 mins followed by substrate addition measured every 10 seconds for 10 mins. Also on record: species or system Bacteria.
Experiment [16] is described as follows: Inhibition of recombinant bacterial beta-lactamase VIM-2 MBL (27 to 266 residues) expressed in Escherichia coli Transetta (DE3) using FC-1 as substrate preincubated for 10 mins followed by substrate addition measured every 60 secs by fluorescence based assay. Also on record: species or system Bacteria.
Experiment [17] in a line: Inhibition of recombinant bacterial beta-lactamase NDM-1 MBL (1 to 270 residues) expressed in Escherichia coli Transetta (DE3) using FC-1 as substrate preincubated for 10 mins followed by substrate addition measured every 60 secs by fluorescence based assay. Also on record: species or system Bacteria.
A short description of experiment [18]: Inhibition of recombinant bacterial beta-lactamase TEM-1 SBL (24 to 286 residues) expressed in Escherichia coli Transetta (DE3) using FC-1 as substrate preincubated for 4 hrs followed by substrate addition measured every 60 secs by fluorescence based assay. Also on record: species or system Bacteria.
Experiment [19] can be described thus: Binding affinity to recombinant full-length bacterial beta-lactamase KPC-2 assessed as inhibition constant using nitrocefin as substrate by spectrophotometric assay. Set-up: species or system Bacteria.
A short description of experiment [20]: Binding affinity to bacterial beta-lactamase VIM-1 expressed in Escherichia coli BL21 (DE3) assessed as inhibition constant using nitrocefin as substrate by spectrophotometric assay. Also on record: species or system Bacteria.
A short description of experiment [21]: Binding affinity to Pseudomonas aeruginosa beta-lactamase IMP-1 expressed in Escherichia coli Lemo21(DE3) assessed as inhibition constant using nitrocefin as substrate by spectrophotometric assay.
Experiment [22] can be described thus: Inhibition of bacterial beta-lactamase CTX-M-15 assessed as inhibition constant using cephalothin as substrate by spectrophotometric assay. Also on record: species or system Bacteria.
Experiment [23] in a line: Inhibition of recombinant bacterial beta-lactamase […] (28 to 270 residues) assessed as inhibition constant using imipenem as substrate by spectrophotometric assay. Set-up: species or system Bacteria.

One may read the pKi as the negative decadic logarithm of the Ki, by convention in mol/L. For the molecule `O=C(Nc1nnn[nH]1)C(Nc1ccccc1)c1ccccc1` (centres undefined), the pKi in experiment [1] and in experiment [2] was 3.32 in each case.

For orientation: inhibition means the share of the control response that was lost under treatment. As for `CCn1c(S)nnc1-c1nn(C)c(C)c1Cl`, the inhibition in [3] was below 20%; in experiment [4], below 20%; in experiment [5] it was 70%; in experiment [6] it was 86%; in experiment [7], 37%.

For orientation: pIC50 means −log10 of the IC50, conventionally taken in molar units. On to `O=C(O)c1c(F)ccc2c1OB(O)[C@@H]1C[C@H]21` [XERUBORBACTAM], for which the pIC50 in experiment [8] is 8.54; in [9] it was 8.92; in experiment [10], 8.72; in [11] it was 8.66; in experiment [12], 7.66; in [13] it was 8.96. The pIC50 is 6.21 in experiment [14] and 7.85 in [15].

With `O=C(NC(=S)NNC(=O)c1cccs1)c1ccc(Br)o1`, the inhibition in experiment [3] worked out at 55%; in [4], 66%; in [5], 79%; in [6] it was 45%; in [7] it was 32%.

For the molecule `O=P(O)(O)C(c1cc2ccccc2n1-c1ncccn1)P(=O)(O)O`, the pIC50 was 5.25 in [16], 4.82 in experiment [17] and 4.94 in [18].

As for `O=C(Nc1nnn[nH]1)C(c1ccccc1)[S+]([O-])c1ccccc1` (centres undefined), the negative-log Ki (pKi) is 2.80 in [1] and 3.69 in experiment [2].

In the case of `Sc1nncn1/N=C/c1ccc(Br)cc1`, the pKi in experiment [19] is 3.80; in experiment [20], 4.24; in experiment [21], 3.55.

On to `O=C(Nc1nnn[nH]1)c1cc(-c2ccccc2)n(-c2ccccc2)n1`, for which the negative-log Ki (pKi) in [1] was 3.62; in [2] it was 4.25.

On to `S=c1[nH]ncn1NCc1ccc2c(c1)OCO2`, for which the figures for the negative-log Ki (pKi) in [19], in [20] and in [21] were 3.86, 3.92 and 3.90, respectively.

For `O=P(O)(O)C(c1ccc2ccccc2c1-c1ccccn1)P(=O)(O)O`, the pIC50 is 5.42 in experiment [16], 4.77 in experiment [17] and 5.76 in experiment [18].

With `Sc1nnc(-c2ccco2)n1C1CC1`, the inhibition is 49% in [3]; 46% in [4]; 62% in experiment [5]; 81% in experiment [6]; below 20% in experiment [7].

For `CCN(CC)c1ccc(CNn2cn[nH]c2=S)cc1`, the negative-log Ki (pKi) in experiment [19] is 3.58; in experiment [20] it was 3.65; in experiment [21], 3.76.

Consider `S=c1[nH]ncn1/N=C/c1c[nH]c2ccccc12`, for which the pKi was 3.86 in [19], 4.02 in experiment [20] and 3.98 in experiment [21].

In the case of `O=C(Nc1nnn[nH]1)c1cc(-c2ccccc2)nn1-c1ccccc1`, the figures for the pKi in [1] and in [2] were 4.36 and 4.21, respectively.

Regarding `O=P(O)(O)C(c1ccccc1-c1ccccn1)P(=O)(O)O`, the pIC50 is 4.96 in [16], 4.49 in experiment [17] and 4.17 in [18].

For the molecule `Sc1nnc(-c2cccnc2)n1CC1CCCO1` (centres undefined), the inhibition in [3] is 33%; in [4] it was below 20%; in experiment [5], 54%; in experiment [6] it was 87%; in [7], below 20%.

On to `S=C(N/N=C/c1ccccc1)N1CCOCC1`, for which the inhibition in experiment [3] was determined as 32%; in experiment [4], 41%; in [5], 71%; in experiment [6] it was 33%; in experiment [7], 50%. Further, the negative logarithm of the Ki (pKi) in experiment [22] was 4.30; in [23] it was 4.49.
